Data reported in paper PMC10458471, “Electrophysiological Assessment of Newly Synthesized 2,3-Benzodiazepine Derivatives for Inhibiting the AMPA Receptor Channel” (Molecules, 2023).
Like-named read-outs stand apart in the source and are kept apart here.

Legend:
GluA1 = target: T1, GluA1 (Rattus norvegicus, UniProt P19490); test: Whole-cell patch-clamp recording of homomeric GluA1 AMPAR expressed in HEK293T cells; assay type: cell-based
T1 construct: expressed in transfected cells; host or cells: HEK293T
T1 sequence (P19490 19-907 isoform P19490-2 limits assumed): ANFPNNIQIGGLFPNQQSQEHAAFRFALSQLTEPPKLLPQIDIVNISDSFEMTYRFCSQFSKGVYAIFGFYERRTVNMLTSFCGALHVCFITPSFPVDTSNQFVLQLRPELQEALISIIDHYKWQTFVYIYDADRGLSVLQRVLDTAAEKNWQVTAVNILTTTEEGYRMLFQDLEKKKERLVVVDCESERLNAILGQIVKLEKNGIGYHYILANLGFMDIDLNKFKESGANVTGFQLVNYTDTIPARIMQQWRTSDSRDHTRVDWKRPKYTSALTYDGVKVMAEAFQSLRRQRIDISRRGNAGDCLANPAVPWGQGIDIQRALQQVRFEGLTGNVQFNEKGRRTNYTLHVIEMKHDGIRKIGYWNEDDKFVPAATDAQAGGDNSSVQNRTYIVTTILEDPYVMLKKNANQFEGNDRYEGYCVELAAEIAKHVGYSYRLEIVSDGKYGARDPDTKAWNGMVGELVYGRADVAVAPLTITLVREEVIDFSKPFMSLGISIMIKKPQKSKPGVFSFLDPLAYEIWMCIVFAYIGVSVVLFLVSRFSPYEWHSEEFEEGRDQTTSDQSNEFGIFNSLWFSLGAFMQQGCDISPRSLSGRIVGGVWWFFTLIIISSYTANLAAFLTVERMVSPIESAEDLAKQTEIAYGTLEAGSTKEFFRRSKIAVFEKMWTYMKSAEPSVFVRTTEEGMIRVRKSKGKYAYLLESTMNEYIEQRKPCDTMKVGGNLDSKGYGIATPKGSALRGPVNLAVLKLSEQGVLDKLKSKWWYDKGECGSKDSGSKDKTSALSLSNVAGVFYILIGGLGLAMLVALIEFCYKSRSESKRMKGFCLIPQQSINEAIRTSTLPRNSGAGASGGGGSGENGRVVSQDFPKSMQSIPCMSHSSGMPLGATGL
Experimental: (§1) For the DNA preparation, the QIAGEN Plasmid Mini Kit was used to prepare up to 20 µg of high-copy plasmid DNA [30]. All AMPAR subunits utilized in this study included the flip isoform received from S. F. Heinemann (Salk Institute, La Jolla, CA, USA) and sub-cloned in pRK for expression in Human Embryonic Kidney Cells 293 (HEK293T). The human embryonic kidney (HEK293T) cells were obtained from Sigma, Taufkirchen, Germany, and we only used the HEK293T cell line due to their ease of growth and transfection and wide utilization in cell culture. For the transfection, we used the constructs GluA1, GluA2, GluA2/3, and GluA1/2, along with the GFP-expressing construct, as described in our previous work. The transfection reagents utilized were jetPRIME (Polyplus: New York, NY, USA) or Lipofectamine 2000 (Invitrogen; San Diego, CA, USA). The highly fluorescent cells were identified and selected for recording. The selected cells were seeded in Dulbecco Modified Eagle Medium (DMEM) (Sigma, Roedermark, Germany) containing 10% FBS, 0.1 mg/mL streptomycin, and 1 mM sodium pyruvate (Biological Industries; Beit-Haemek, Israel). The cells were incubated at 37 °C with 5% CO2 added to the medium and subcultured twice a week until they reached passage #20. Following a day and a half, the cells were replated on coverslips covered with Laminin (1 mg/mL; Sigma, Roedermark, Germany) for electrophysiological recordings. Our previous work has detailed the DNA preparation, cDNA transient transfection, and cell culture of HEK293T [30, 31, 32, 33].
(§2) After that, a patch was placed in front of a rapid perfusion system comprised of a theta tube flow pipe mounted on a piezoelectric translator that was used to wash the cell continuously from one barrel while the other supplied the compound of interest to the cell. Recordings were conducted 36–48 h after transfection at 22 °C, with a membrane potential of −60 mV. Currents were amplified using an integrated patch amplifier (IPA, Sutter Instruments, Novato, CA, USA), filtered at 2 kHz, and digitized at 10 kHz using SutterPatch Software v. 1.1.1 [46]. […] The extracellular medium contained (in mM): 150 NaCl, 2.8 KCl, 0.5 MgCl2, 2 CaCl2, and 10 HEPES, pH 7.4 adjusted with NaOH. The holding potential was typically −60 mV. The sample size was determined to be eight viable cells to calculate the mean inhibition of the derivative of interest. The solution exchange time (10–90% to peak) was estimated at […] using open-tip control at the end of a recording. Inhibition was calculated by comparing the current observed when the cell was supplied with glutamate alone and when the same cell was supplied with both glutamate and the 2,3-BDZ compounds. The initial tube containing only glutamate was reintroduced to the cell to ensure cellular safety and authenticate the antagonist’s findings. This step ensured that the glutamate-induced current observed before the administration of the antagonist was nearly indistinguishable from the current observed after administration.
(§3) The experiment served two purposes: first, determining the whole-cell current amplitude ratio in the absence and presence of the compounds (A/AI) to derive a constant inhibitory value independent of the rate measurement. Second, as an independent control method, a fast exchange solution flow methodology was employed using piezoelectric actuators, providing the fastest exchange solution with open-tip current rise times in the 100–300 μs range to assess the amplitude of the whole-cell current. Detailed data analysis of this process is provided in the supporting information (Tables S1–S4).
(§4) The data acquired were analyzed using Igor Pro7 (Wave Metrics, Inc., Portland, OR, USA). Receptor desensitization (τw des) and deactivation rates were estimated by fitting the current decay starting from 95% of the peak to the baseline current using a double exponential formulation. […]

GluA2 = target: T2, GluA2 (Rattus norvegicus, UniProt P19491); test: Whole-cell patch-clamp recording of homomeric GluA2 AMPAR expressed in HEK293T cells; assay type: cell-based
T2 construct: expressed in transfected cells; host or cells: HEK293T
T2 sequence (P19491 22-883 isoform P19491-2 limits assumed): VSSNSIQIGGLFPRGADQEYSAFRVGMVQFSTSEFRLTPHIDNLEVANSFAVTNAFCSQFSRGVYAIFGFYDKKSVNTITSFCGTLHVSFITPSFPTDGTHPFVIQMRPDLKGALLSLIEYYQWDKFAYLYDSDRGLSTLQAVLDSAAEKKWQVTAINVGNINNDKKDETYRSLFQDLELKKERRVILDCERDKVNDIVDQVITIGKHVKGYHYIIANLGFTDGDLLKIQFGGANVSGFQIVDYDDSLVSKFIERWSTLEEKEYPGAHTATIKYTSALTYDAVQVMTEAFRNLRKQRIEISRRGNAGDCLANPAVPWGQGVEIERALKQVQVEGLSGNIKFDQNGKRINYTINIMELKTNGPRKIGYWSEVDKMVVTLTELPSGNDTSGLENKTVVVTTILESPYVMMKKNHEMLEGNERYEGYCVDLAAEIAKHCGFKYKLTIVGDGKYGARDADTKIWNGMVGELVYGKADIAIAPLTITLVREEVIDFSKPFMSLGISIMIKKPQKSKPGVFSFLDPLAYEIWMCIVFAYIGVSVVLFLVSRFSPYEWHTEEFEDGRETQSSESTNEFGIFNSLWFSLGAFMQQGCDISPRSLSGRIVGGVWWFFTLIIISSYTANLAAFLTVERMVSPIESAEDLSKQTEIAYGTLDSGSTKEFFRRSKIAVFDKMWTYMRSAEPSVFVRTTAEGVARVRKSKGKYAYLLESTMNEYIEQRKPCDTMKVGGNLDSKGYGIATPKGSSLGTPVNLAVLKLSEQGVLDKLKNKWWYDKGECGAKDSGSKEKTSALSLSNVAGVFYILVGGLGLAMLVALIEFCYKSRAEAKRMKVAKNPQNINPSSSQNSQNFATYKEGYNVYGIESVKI
Experimental: as §1, §2, §3, §4

AMPA receptor subunits = test: Whole-cell patch-clamp recording, statements over all tested AMPAR subunits (GluA1, GluA1/2, GluA2, GluA2/3) in HEK293T cells; assay type: cell-based; conditions: 16 µM compound
Experimental: as §1, §2, §3, §4

GluA2/3 = target: T3, GluA2/3 (Rattus norvegicus, UniProt P19491+P19492); test: Whole-cell patch-clamp recording of heteromeric GluA2/3 AMPAR expressed in HEK293T cells; assay type: cell-based
T3 construct: expressed in transfected cells; host or cells: HEK293T
T3 sequence (P19491 22-883 isoform P19491-2 limits assumed): as above
T3 sequence (P19492 23-888 isoform P19492-2 limits assumed): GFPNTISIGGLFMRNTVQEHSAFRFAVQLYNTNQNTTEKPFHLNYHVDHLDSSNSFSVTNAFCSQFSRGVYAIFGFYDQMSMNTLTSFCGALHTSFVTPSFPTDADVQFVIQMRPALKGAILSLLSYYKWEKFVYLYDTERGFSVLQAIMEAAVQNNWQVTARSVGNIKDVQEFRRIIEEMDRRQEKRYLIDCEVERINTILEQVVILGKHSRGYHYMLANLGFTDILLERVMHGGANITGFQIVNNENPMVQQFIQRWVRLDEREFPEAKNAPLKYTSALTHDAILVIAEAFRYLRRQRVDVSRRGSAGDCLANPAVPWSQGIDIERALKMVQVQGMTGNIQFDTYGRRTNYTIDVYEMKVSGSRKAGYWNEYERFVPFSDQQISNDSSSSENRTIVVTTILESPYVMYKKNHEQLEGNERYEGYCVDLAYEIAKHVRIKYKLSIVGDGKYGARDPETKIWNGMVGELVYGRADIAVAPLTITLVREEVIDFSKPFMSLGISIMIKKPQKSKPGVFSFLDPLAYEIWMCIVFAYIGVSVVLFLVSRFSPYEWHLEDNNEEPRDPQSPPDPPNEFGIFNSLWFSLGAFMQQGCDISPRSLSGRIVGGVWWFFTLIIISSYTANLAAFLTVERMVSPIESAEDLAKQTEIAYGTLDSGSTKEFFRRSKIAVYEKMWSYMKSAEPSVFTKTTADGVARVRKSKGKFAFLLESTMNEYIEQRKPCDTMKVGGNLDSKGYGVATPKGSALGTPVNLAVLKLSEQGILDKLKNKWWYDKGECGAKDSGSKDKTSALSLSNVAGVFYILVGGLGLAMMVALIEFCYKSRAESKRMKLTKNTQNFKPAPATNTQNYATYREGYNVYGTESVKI
Experimental: as §1, §2, §3, §4

GluA1/2 = target: T4, GluA1/2 (Rattus norvegicus, UniProt P19490+P19491); test: Whole-cell patch-clamp recording of heteromeric GluA1/2 AMPAR expressed in HEK293T cells; assay type: cell-based
T4 construct: expressed in transfected cells; host or cells: HEK293T
T4 sequence (P19490 19-907 isoform P19490-2 limits assumed): as the sequence (P19490 19-907 isoform P19490-2 limits assumed) above
T4 sequence (P19491 22-883 isoform P19491-2 limits assumed): as the sequence (P19491 22-883 isoform P19491-2 limits assumed) above
Experimental: as §1, §2, §3, §4

[1] = 10 mM glutamate + 16 µM compound, -60 mV, pH 7.4, 22 °C, mean±SEM, n=8
[2] = 10 mM glutamate, 16 µM compound, n=8
[3] = 1 ms 10 mM glutamate + 16 µM compound, n=8
[4] = 500 ms 10 mM glutamate + 16 µM compound, n=8
[5] = log of IC50, read-out: Log IC50 (converted)
[6] = normalized peak current, -60 mV, pH 7.4, 22 °C, read-out: IC50
[7] = washout/recovery, glutamate alone after compound, n=8

- Amplitude with compound (GluA1; [1]): 237±12 pA
- A/AI (current amplitude ratio without/with compound) (GluA1; [2]): 3.94±0.2
- t deact (weighted deactivation time constant) (GluA1; [3]): 2.4 ± 0.1 ms
- IC50 (GluA1; [5]): 5.75 µM
- IC50 (GluA1; [6]): 5.8 µM
- Amplitude, applying glutamate alone after compound (GluA1; [7]): 936±46 pA
- Amplitude with compound (GluA2; [1]): 326±17 pA
- A/AI (current amplitude ratio without/with compound) (GluA2; [2]): 4.16±0.2
- t deact (weighted deactivation time constant) (GluA2; [3]): 2.8 ± 0.1 ms
- IC50 (GluA2; [5]): 5.75 µM
- IC50 (GluA2; [6]): 5.74 µM
- Amplitude with compound (GluA2/3; [1]): 130±12 pA
- A/AI (current amplitude ratio without/with compound) (GluA2/3; [2]): 4.08±0.3
- t deact (weighted deactivation time constant) (GluA2/3; [3]): 2.9 ± 0.2 ms
- IC50 (GluA2/3; [5]): 5.75 µM
- IC50 (GluA2/3; [6]): 5.76 µM
- Amplitude, applying glutamate alone after compound (GluA2/3; [7]): 525±22 pA
- Amplitude with compound (GluA1/2; [1]): 144±11 pA
- A/AI (current amplitude ratio without/with compound) (GluA1/2; [2]): 3.98±0.2
- t deact (weighted deactivation time constant) (GluA1/2; [3]): 2.8 ± 0.2 ms
- IC50 (GluA1/2; [5]): 5.75 µM
- IC50 (GluA1/2; [6]): 5.79 µM
- Amplitude, applying glutamate alone after compound (GluA1/2; [7]): 569±43 pA
- melting point: 182 to 184 °C
SMILES: O=C1Cc2cc3c(cc2C(c2ccc([N+](=O)[O-])cc2F)=NN1)OCO3 [2,3-BDZ-3]
- t des (weighted desensitization time constant) (GluA1; [4]): 2.1 ± 0.1 ms
- t des (weighted desensitization time constant) (GluA2; [4]): 2.3 ± 0.1 ms
- Effect on desensitization rate (AMPA receptor subunits): no change
- Reduction in AMPAR subunit currents (AMPA receptor subunits): 4 fold
- Effect on deactivation rate of the AMPAR subunits examined (AMPA receptor subunits; 1 ms glutamate): no change
- t des (weighted desensitization time constant) (GluA2/3; [4]): 2.5 ± 0.2 ms
- t des (weighted desensitization time constant) (GluA1/2; [4]): 4.9 ± 0.3 ms
